# Measured values from patent publication US7182963B2, “Cosmetic and dermopharmaceutical compositions for skin prone to acne” (priority 2001, dated 2007).
# Experiments:
# Staphylococcus hominis = assay: Antibacterial effect, agar incorporation, strain B; type: cell-based; set-up: key to bacterial growth, strain B: ‘+’ = bacterial growth; ‘−’ = no bacterial growth; details: for bacterial growth, strain B: 24 h (same at 48 h), equivalent to 5% premix
# Method: (§1) Test Principle and Implementation: 1 mL of the premix in example No. 1 or its constituents at concentrations equivalent to 5% of the premix were incorporated in molten agar medium (BioMérieux) plated in a Petri dish. […] The plates were then incubated at 37° C. for 24 and 48 hours and inspected visually. Five strains, Corynebacterium minutissimum, Propionibacterium acnes, Staphylococcus aureus, Staphylococcus hominis and Acinetobacterium calcoaceticus were studied.
# P. acnes = assay: Antibacterial effect, agar incorporation, strain D; type: cell-based, Propionibacterium acnes; set-up: key to bacterial growth, strain D: ‘+’ = bacterial growth; ‘−’ = no bacterial growth; details: for bacterial growth, strain D: 24 h (same at 48 h), equivalent to 5% premix
# Method: as §1
# Staphylococcus aureus = assay: Antibacterial effect, agar incorporation, strain C; type: cell-based; set-up: key: ‘+’ = bacterial growth; ‘−’ = no bacterial growth; details: 24 h (same at 48 h), equivalent to 5% premix
# Method: as §1
# [1] = tested on: Corynebacterium minutissimum; assay: Antibacterial effect, agar incorporation, strain A; type: cell-based; set-up: key: ‘+’ = bacterial growth; ‘−’ = no bacterial growth; details: 24 h (same at 48 h), equivalent to 5% premix
# Method: as §1
# [2] = tested on: Acinetobacterium calcoaceticus; assay: Antibacterial effect, agar incorporation, strain E; type: cell-based; set-up: key to bacterial growth, strain E: ‘+’ = bacterial growth; ‘−’ = no bacterial growth; details: for bacterial growth, strain E: 24 h (same at 48 h), equivalent to 5% premix; for antimicrobial activity: A. calcoaceticus
# Method: as §1
# 5α-reductase [3] = assay: Inhibition of 5α-reductase, HPLC determination of testosterone, in vitro; type: biochemical; details: for % inhibition: mean±SEM, 5 assays
# Method: Principle and implementation of the test: the aim of this test was to confirm the previous result but using an HPLC analysis method. Unlike 5-DHT, testosterone absorbs light at the wavelength used (245 nm). The decrease in testosterone peak area (which was characterized under our operating conditions by a retention time of 26 minutes) reflects the reduction of the concentration of the compound in the study medium and thus reflects 5α-reductase activity.
# The same type of protocol as in the previous example was used, but instead of determining the absorbances, the reaction media were analyzed by HPLC.
# 5α-reductase [4] = assay: Inhibition of 5α-reductase, enzymatic assay (NADPH absorbance at 340 nm), in vitro; type: biochemical; details: for % inhibition: mean±SEM, 5 assays
# Method: Principle and implementation of the test (adapted from Zy and Zu, 1998):
# Testosterone is irreversibly metabolized by 5α-reductase to […] (5-DHT) in the presence of the cofactor NADPH. The reaction is monitored, at 37° C., by determining, using a spectrophotometer, the reduction in the absorbance of the reaction medium at 340 nm, due to the conversion of NADPH to NADP.
# The test thus consists in mixing testosterone, NADPH and the test product or its vehicle alone (control reaction). After 3 minutes to allow the system to equilibrate, the baseline absorbance of the system is determined. Then the reaction is triggered by addition of the enzyme, 5α-reductase. After 10 minutes, a second determination of the absorbance, final absorbance, is conducted. The difference between the two measurements reflects the quantity of NADPH consumed. That quantity is proportional to the quantity of testosterone converted to 5-DHT.
# [5] = tested on: interleukin 6 (IL-6) on normal human fibroblasts (HF); assay: Anti-inflammatory effect: IL-6 (ELISA) in normal human fibroblasts after UV-B irradiation; type: cell-based; details: for HF % change (IL-6 vs. tests without UV exposure): UV-B 50 mJ.cm^−2, 24 hours
# Method: (§2) Principle and test implementation: it is possible to estimate a degree of inflammation by determining the quantity of mediators such as prostaglandins, leukotrienes or interleukins. In this example, we selected assay of interleukin 6 (IL-6) on normal human fibroblasts (HF) and keratinocytes (HK) in culture following exposure to UV-B irradiation. Broadly speaking, the cells were cultured in a conventional culture medium (DMEMc+10% FCS) for periods of 24 hours for HF and 1 week for HK. After elimination of the buffer and 2 successive washings with phosphate buffer solution, the cells were exposed to UV-B irradiation at a standardized energy level of 50 mJ.cm^−2. The buffer was then rapidly eliminated and replaced by the same culture medium as that used at the start of the experiment, but containing the test extracts at the prerequisite concentrations or DMSO for the control series. After 24 hours, the culture medium was harvested and IL-6 concentration determined using a standard ELISA method. An additional series was conducted using the same protocol but without UV-B irradiation in order to determine the baseline level and control the stability of the study system. All the assays were conducted in triplicate.
# [6] = tested on: normal human keratinocytes (HK); assay: Antiproliferative effect on keratinocytes (DNA quantity, Hoechst 33258); type: cell-based; details: for % inhibition (quantity of DNA, number of cells): 1 week culture
# Excerpt: Test principle and implementation: since the quantity of DNA is constant for each cell, the determination of the overall quantity of DNA is equivalent to measuring the number of cells used for the determination. This principle enables routine use of more refined but very cumbersome methodologies to be avoided. Various methods have been developed on the basis of this protocol, of which, in particular, that used herein. When bound to DNA with a constant and known stereochemistry, the fluorophore, Hoechst 33258, presents, first, increased fluorescence, but also an emission spectrum shift from 492 to 458 nm. By means of comparison with pre-established sets of standards, the concomitant monitoring of the above 2 parameters enables quantification of the quantity of DNA present in the cell samples studied. Broadly speaking, normal human keratinocytes (HK) are cultured in a classic culture medium (DMEMc+10% FCS) for 1 week, in the absence of the test product (control series in order to determine the baseline cell proliferation of the system studied) or in the presence of the test products alone or in combination. Fluorophore Hoechst 33258 was added at the end of the protocol before withdrawing cell aliquots for assay. The assays were conducted in triplicate as 3 mutually independent assays.
# [7] = tested on: interleukin 6 (IL-6) on normal human keratinocytes (HK); assay: Anti-inflammatory effect: IL-6 (ELISA) in normal human keratinocytes after UV-B irradiation; type: cell-based; details: for HK % change (IL-6 vs. tests without UV exposure): UV-B 50 mJ.cm^−2, 24 hours
# Method: as §2
# [8] = [c] 0.01%, listed as nordihydroguaiaretic acid
structure (smiles),measurement,setting,value
Oc1cc(Cl)ccc1Oc1ccc(Cl)cc1Cl [Trichlosan],"bacterial growth, strain B",Staphylococcus hominis; 10^4 bacteria/mL,−
same,"bacterial growth, strain B",Staphylococcus hominis; 10^5 bacteria/mL,−
same,"bacterial growth, strain D",P. acnes; 10^4 bacteria/mL,−
same,"bacterial growth, strain D",P. acnes; 10^5 bacteria/mL,−
same,"bacterial growth, strain C",Staphylococcus aureus; 10^4 bacteria/mL,−
same,"bacterial growth, strain C",Staphylococcus aureus; 10^5 bacteria/mL,−
same,"bacterial growth, strain A",[1]; 10^4 bacteria/mL,−
same,"bacterial growth, strain A",[1]; 10^5 bacteria/mL,−
same,"bacterial growth, strain E",[2]; 10^4 bacteria/mL,−
same,"bacterial growth, strain E",[2]; 10^5 bacteria/mL,−
"CC(Cc1ccc(O)c(O)c1)C(C)Cc1ccc(O)c(O)c1 (stereo not drawn) [NDGA, nordihydroguaiaretic acid]",activity in the test,5α-reductase [3],no activity
same,% inhibition,5α-reductase [3]; [c] 0.01%,1.2 ± 0.4%
same,% inhibition,5α-reductase [3]; [c] 0.04%,1.0 ± 0.9%
same,% inhibition,5α-reductase [3]; [c] 0.1%,0.9 ± 0.7%
same,activity in the test,5α-reductase [4],no activity
same,% inhibition,5α-reductase [4]; [c] 0.01%,2.1 ± 1.6%
same,% inhibition,5α-reductase [4]; [c] 0.04%,3.7 ± 2.9%
same,% inhibition,5α-reductase [4]; [c] 0.1%,3.0 ± 1.9%
same,antimicrobial activity,Staphylococcus hominis; S. hominis,selective antimicrobial activity
same,inhibition vs. irradiated control (HF),[5]; 0.01%,19%
same,HF % change (IL-6 vs. tests without UV exposure),[5]; [c] 0.01%,+356 ± 18%
same,HF % change (IL-6 vs. tests without UV exposure),[5]; [8],+356%
same,HF % change (IL-6 vs. tests without UV exposure),[5]; [c] 0.04%,+155 ± 9%
same,HF % change (IL-6 vs. tests without UV exposure),[5]; [c] 0.1%,+87 ± 7%
same,"% inhibition (quantity of DNA, number of cells)",[6]; [c] 0.04%,22.3 ± 1.9%
same,"% inhibition (quantity of DNA, number of cells)",[6]; [c] 0.1%,29.9 ± 1.7%
same,antimicrobial activity,[2],selective antimicrobial activity
same,inhibition vs. irradiated control (HK),[7]; 0.01%,14%
same,HK % change (IL-6 vs. tests without UV exposure),[7]; [c] 0.01%,+388 ± 10%
same,HK % change (IL-6 vs. tests without UV exposure),[7]; [8],+388%
same,HK % change (IL-6 vs. tests without UV exposure),[7]; [c] 0.04%,+201 ± 10%
same,HK % change (IL-6 vs. tests without UV exposure),[7]; [c] 0.1%,+91 ± 14%
"CC1(C)CC[C@]2(C(=O)O)CC[C@]3(C)C(=CC[C@@H]4[C@@]5(C)CC[C@H](O)C(C)(C)[C@@H]5CC[C@]43C)[C@@H]2C1 [Oleanolic acid, oleanolic acid]",% inhibition,5α-reductase [3]; [c] 0.01%,10.9 ± 1.4%
same,% inhibition,5α-reductase [3]; [c] 0.03%,25.6 ± 2.0%
same,% inhibition,5α-reductase [3]; [c] 0.1%,48%
same,% inhibition,"5α-reductase [3]; [c] 0.1%, listed as Oleanolic acid (obtained from olive tree leaves)",47.7 ± 3.8%
same,% inhibition,5α-reductase [4]; [c] 0.01%,16.7 ± 1.1%
same,% inhibition,5α-reductase [4]; [c] 0.03%,31.7 ± 2.9%
same,% inhibition,5α-reductase [4]; [c] 0.1%,56.3 ± 2.6%
same,% inhibition,"5α-reductase [4]; [c] 0.1%, listed as oleanolic acid",56%
same,antimicrobial activity,P. acnes; P. acnes,selective antimicrobial activity
same,"activity in the test, HF",[5],devoid of activity
same,HF % change (IL-6 vs. tests without UV exposure),[5]; [c] 0.01%,+455 ± 14%
same,HF % change (IL-6 vs. tests without UV exposure),[5]; [c] 0.03%,+437 ± 12%
same,HF % change (IL-6 vs. tests without UV exposure),[5]; [c] 0.1%,+441 ± 18%
same,activity in the test,[6],devoid of activity
same,"% inhibition (quantity of DNA, number of cells)",[6]; [c] 0.01%,0.9 ± 1.0%
same,"% inhibition (quantity of DNA, number of cells)",[6]; [c] 0.03%,1.1 ± 1.6%
same,"% inhibition (quantity of DNA, number of cells)",[6]; [c] 0.1%,0.7 ± 0.7%
same,antimicrobial activity,[2],selective antimicrobial activity
same,"activity in the test, HK",[7],devoid of activity
same,HK % change (IL-6 vs. tests without UV exposure),[7]; [c] 0.01%,+461 ± 16%
same,HK % change (IL-6 vs. tests without UV exposure),[7]; [c] 0.03%,+444 ± 14%
same,HK % change (IL-6 vs. tests without UV exposure),[7]; [c] 0.1%,+450 ± 14%
